Target: T1, human HSL (Homo sapiens, UniProt Q05469)
T1 construct: overlapping PCR to generate a full length human HSL ORF with a 3′-His6 tag; His6 (C); made in house; host or cells: High 5 insect cells (baculovirus, pFast-BAC)
T1 sequence (Q05469 1-1076): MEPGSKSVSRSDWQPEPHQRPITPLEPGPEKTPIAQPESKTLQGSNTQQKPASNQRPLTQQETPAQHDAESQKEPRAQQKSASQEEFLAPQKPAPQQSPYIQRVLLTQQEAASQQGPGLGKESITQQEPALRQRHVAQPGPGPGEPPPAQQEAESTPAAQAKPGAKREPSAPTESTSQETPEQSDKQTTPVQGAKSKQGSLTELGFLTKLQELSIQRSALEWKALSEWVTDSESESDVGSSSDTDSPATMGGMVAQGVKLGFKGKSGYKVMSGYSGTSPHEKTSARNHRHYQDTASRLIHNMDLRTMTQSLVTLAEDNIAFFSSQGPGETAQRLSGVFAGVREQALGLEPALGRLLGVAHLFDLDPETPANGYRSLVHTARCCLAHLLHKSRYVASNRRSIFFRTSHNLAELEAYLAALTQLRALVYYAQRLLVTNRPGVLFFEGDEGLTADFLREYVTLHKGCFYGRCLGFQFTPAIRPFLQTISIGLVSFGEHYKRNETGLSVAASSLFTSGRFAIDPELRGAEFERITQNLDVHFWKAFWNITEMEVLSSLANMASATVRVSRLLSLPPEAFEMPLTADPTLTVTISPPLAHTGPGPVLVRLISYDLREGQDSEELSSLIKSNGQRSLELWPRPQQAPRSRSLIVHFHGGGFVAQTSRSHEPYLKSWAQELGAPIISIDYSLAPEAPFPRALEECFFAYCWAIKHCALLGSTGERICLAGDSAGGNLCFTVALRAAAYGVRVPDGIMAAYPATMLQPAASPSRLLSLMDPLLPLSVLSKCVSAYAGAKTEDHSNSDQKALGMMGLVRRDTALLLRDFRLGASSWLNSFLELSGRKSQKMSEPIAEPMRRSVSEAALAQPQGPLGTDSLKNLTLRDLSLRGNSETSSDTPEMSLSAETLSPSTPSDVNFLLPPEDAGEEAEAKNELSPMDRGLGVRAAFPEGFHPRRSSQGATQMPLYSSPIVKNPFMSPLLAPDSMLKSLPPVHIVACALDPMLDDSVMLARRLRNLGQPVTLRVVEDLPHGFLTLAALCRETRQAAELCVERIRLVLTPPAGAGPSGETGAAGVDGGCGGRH
Assay: Human hormone-sensitive lipase (HSL) enzyme inhibition assay (colorimetric, DMPT substrate)
Type: biochemical
Conditions: human full length HSL-His6; 2,3-dimercapto-1-propanol tributyrate substrate; 37° C., 20 minutes; read-out: HSL hum IC50
Experimental: Production of Human Full Length Hormone Sensitive Lipase-His^6:
1) Cloning: cDNA was prepared from commercial human brain polyA+ RNA and used as a template in overlapping PCR to generate a full length human HSL ORF with a 3′-His6 tag. This full length insert was cloned into the pFast-BAC vector and the DNA-sequence of several single clones was verified. DNA from a correct full length clone with the 3′His6 tag was used to transform the E. coli strain DH10BAC. Resulting bacmid DNA was used to generate a titered baculovirus stock for protein generation. The sequence of the encoded HSL conforms to Swissprot entry Q05469, with the additional C-terminal His6-tag.
2) Protein purification: Culture: 5.5 L, High 5 cells expressing human full length HSL-His^6, 48 hr., containing 25 μM E-64. Cell count: […], 90% viable. Cells were thawed. On ice, cells were suspended in Base Buffer containing 10% glycerol, 25 mM Tris-Cl, 300 mM NaCl, 10 mM imidazole, 10 mM 2-mercaptoethanol, 2 μg pepstatin/ml, 2 μg leupeptin/ml, 2 μg antipain/ml, pH 8.0 at 4° C. in a final volume of 475 ml with 3.75×10^7 cells/ml. […] was done at 3×30 sec., Lubrol PX was added to 0.2% final concentration followed by stirring for 15 min. at 4° C. and centrifugation at 25 k×g, 60 min., 4° C. Soluble proteins were mixed with 60 ml of pre-washed and equilibrated Ni-NTA Agarose (Qiagen 30210) followed by tumbling end-over-end, 45 min., 4° C., centrifugation 1000 rpm 5 min and letting resin settle 5 min. Supernatant was removed, the resin washed in the centrifuge vessel using 5 volumes of Base Buffer containing 0.2% Lubrol PX. Centrifugation was done again, then the supernatant discarded. The resin was poured onto a 0.8 μm membrane in a disposable filter unit (Nalge 450-0080), and washed with 5 volumes of Base Buffer containing 0.2% Lubrol PX. It was then washed with 30 volumes of Base Buffer containing 60 mM imidazole pH 7.5 at 4° C. The protein was eluated with 5 volumes of 25 mM Tris-Cl, 300 mM NaCl, 200 mM imidazole, 10 mM 2-mercaptoethanol, pH 7.5 at 4° C. by tumbling resin with buffer end-over-end, 30 min., 4° C. The resin was captured on a 0.2 μm membrane disposable filter unit (Millipore SCGP U02 RE) and the eluate collected in the reservoir. The eluate was concentrated using a 30 k MWCO centrifugal filter device (Sartorius Vivascience Vivacell 100, VC1022), to 20 ml. It was then dialyzed overnight at 4° C., two times against 2 L of 10% glycerol, 25 mM Tris-Cl, 300 mM NaCl, 0.2 mM EDTA, 0.2 mM DTT, pH 7.5 at 4° C. The protein was filtered using a 0.22 μm disposable filter unit (Millipore SCGP00525). The protein concentration was calculated from absorbance at 280 nm, using 280=0.67 cm-1 mg-1. Yield was 235 mg, total. The protein was stored at −80° C.
Human Hormone-Sensitive Lipase (HSL) Enzyme Inhibition Assay:
HSL enzyme activity was measured by a colorimetric assay using 2,3-dimercapto-1-propanol tributyrate (Aldrich, St. Louis, Mo.) as a substrate. Typically, 1.5 mM 2,3-dimercapto-1-propanol tributyrate (DMPT) in 100 mM MOPS, pH 7.2, 0.2 mg/ml fatty acid-free BSA was prepared by sonication at 4° C. to homogenous suspension. Test compounds (2 mM stock in DMSO) were diluted 3 fold in series in DMSO. Compound solutions were diluted 24 fold in 1.5 mM DMPT containing solution and 18 ul per well was added to 384-well microplates (Corning Costar). Twelve microliters per well of human HSL (15 ug/ml) was added and the reaction mixture was incubated at 37° C. for 20 minutes. Six microliters of 12 mM dithio-bis-(2-nitrobenzoic acid) (DTNB) in DMSO plus 1.2% SDS and 0.6% Triton X-100 were added and the mixture was incubated at room temperature for 15 minutes. Product production was monitored by reading absorbance at 405 nm on an Envision Reader (PerkinElmer Life and Analytical Sciences, Shelton, Conn.).

Row | SMILES | IC50 [nM]
1 | Cc1ccc(S(=O)(=O)N2CCC(C(=O)Nc3ccc(OC(C)C(F)(F)F)nc3)CC2)cc1 (racemic) [Example 6, (rac)-1-(Toluene-4-sulfonyl)-piperidine-4-carboxylic acid [6-(2,2,2-trifluoro-1-methyl-ethoxy)-pyridin-3-yl]-amide] | 120
2 | CC(C)c1ccc(NC(=O)C2CCN(C(=O)CC3CC3)CC2)cc1 [Example 8, 1-(2-Cyclopropyl-acetyl)-piperidine-4-carboxylic acid (4-isopropyl-phenyl)-amide] | 800
3 | Cc1ccc(S(=O)(=O)N2CCC(C)(C(=O)Nc3ccc(OC(F)(F)F)cc3)CC2)cc1 [Example 31, 4-Methyl-1-(toluene-4-sulfonyl)-piperidine-4-carboxylic acid (4-trifluoromethoxy-phenyl)-amide] | 480
4 | O=C(Nc1ccc(OC(F)(F)F)cc1)C1(CO)CCN(S(=O)(=O)c2ccccc2Cl)CC1 [Example 28, 1-(2-Chloro-benzenesulfonyl)-4-hydroxymethyl-piperidine-4-carboxylic acid (4-trifluoromethoxy-phenyl)-amide] | 660
5 | CCN(C(=O)C1CCN(S(=O)(=O)c2ccc(C)cc2)CC1)c1ccc(OC(C)C(F)(F)F)cc1 (racemic) [Example 4, (rac)-1-(Toluene-4-sulfonyl)-piperidine-4-carboxylic acid ethyl-[4-(2,2,2-trifluoro-1-methyl-ethoxy)-phenyl]-amide] | 3000
6 | Cc1ccc(S(=O)(=O)N2CCC(C(=O)Nc3ccc4c(c3)CCO4)CC2)cc1 [Example 17, 1-(Toluene-4-sulfonyl)-piperidine-4-carboxylic acid (2,3-dihydro-benzofuran-5-yl)-amide] | 770
7 | CC(C)c1ccc(NC(=O)C2CCN(C(=O)CC(C)(C)C)CC2)cc1 [Example 10] | 200
8 | Cc1ccc(S(=O)(=O)N2CCC(C(=O)Nc3ccc(OC(C)C4CC4)cc3)CC2)cc1 (racemic) [Example 34, (rac)-1-(Toluene-4-sulfonyl)-piperidine-4-carboxylic acid [4-(1-cyclopropyl-ethoxy)-phenyl]-amide] | 90
9 | CC(C)c1ccc(NC(=O)C2CCN(C(=O)CCC3CC3)CC2)cc1 [Example 9, 1-(3-Cyclopropyl-propionyl)-piperidine-4-carboxylic acid (4-isopropyl-phenyl)-amide] | 350

Now from value to molecule:

Row | IC50 [nM] | SMILES
10 | 90 | COc1ccc(S(=O)(=O)N2CCC(C(=O)Nc3ccc(OC(C)C)cc3)CC2)cc1 [Example 49, 1-(4-Methoxy-benzenesulfonyl)-piperidine-4-carboxylic acid (4-isopropoxy-phenyl)-amide]
11 | 810 | Cc1ccc(S(=O)(=O)N2CCC(C)(C(=O)Nc3ccc(OC(C)C(F)(F)F)cc3)CC2)cc1 (racemic) [Example 43, (rac)-4-Methyl-1-(toluene-4-sulfonyl)-piperidine-4-carboxylic acid [4-(2,2,2-trifluoro-1-methyl-ethoxy)-phenyl]-amide]
12 | 250 | CC1(C(=O)Nc2ccc(OC(F)(F)F)cc2)CCN(S(=O)(=O)c2ccccc2)CC1 [Example 57, 1-Benzenesulfonyl-4-methyl-piperidine-4-carboxylic acid (4-trifluoromethoxy-phenyl)-amide]
13 | 80 | COCC(Oc1ccc(NC(=O)C2CCN(S(=O)(=O)c3ccc(C)cc3)CC2)cc1)C(F)(F)F (racemic) [Example 54, (rac)-1-(Toluene-4-sulfonyl)-piperidine-4-carboxylic acid [4-(2,2,2-trifluoro-1-methoxymethyl-ethoxy)-phenyl]-amide]
14 | 530 | O=C(NCC1(c2ccc(Cl)cc2)CC1)C1CCN(S(=O)(=O)c2ccccc2)CC1 [Example 62, 1-Benzenesulfonyl-piperidine-4-carboxylic acid [1-(4-chloro-phenyl)-cyclopropylmethyl]-amide]
15 | 860 | Cc1ccc(S(=O)(=O)N2CCC(C(=O)Nc3ccc(OCC(O)C(F)(F)F)cc3)CC2)cc1 (racemic) [Example 52, (rac)-1-(Toluene-4-sulfonyl)-piperidine-4-carboxylic acid [4-(3,3,3-trifluoro-2-hydroxy-propoxy)-phenyl]-amide]
16 | 1420 | Cc1ccc(S(=O)(=O)N2CCC(CO)(C(=O)Nc3ccc(OC(C)C(F)(F)F)cc3)CC2)cc1 (racemic) [Example 55, (rac)-4-Hydroxymethyl-1-(toluene-4-sulfonyl)-piperidine-4-carboxylic acid [4-(2,2,2-trifluoro-1-methyl-ethoxy)-phenyl]-amide]
17 | 70 | Cc1ccc(S(=O)(=O)N2CCC(C(=O)Nc3ccc(O[C@H](CCO)C(F)(F)F)cc3)CC2)cc1 [Example 60, 1-(Toluene-4-sulfonyl)-piperidine-4-carboxylic acid [4-((R)-3-hydroxy-1-trifluoromethyl-propoxy)-phenyl]-amide]
18 | 640 | O=C(NCC1(c2ccc(Cl)cc2)CC1)C1CCN(S(=O)(=O)c2ccccc2Cl)CC1 [Example 61, 1-(2-Chloro-benzenesulfonyl)-piperidine-4-carboxylic acid [1-(4-chloro-phenyl)-cyclopropylmethyl]-amide]
19 | 40 | COc1ccc(S(=O)(=O)N2CCC(C(=O)Nc3ccc(OC(F)(F)F)cc3)CC2)cc1 [Example 48, 1-(4-Methoxy-benzenesulfonyl)-piperidine-4-carboxylic acid (4-trifluoromethoxy-phenyl)-amide]
20 | 150 | Cc1ccc(S(=O)(=O)N2CCC(C(=O)Nc3ccc(OC(CO)C(F)(F)F)cc3)CC2)cc1 (racemic) [Example 45, (rac)-1-(Toluene-4-sulfonyl)-piperidine-4-carboxylic acid [4-(2,2,2-trifluoro-1-hydroxymethyl-ethoxy)-phenyl]-amide]
